The text below walks through data of patent publication US20230124467A1, “COMPOUNDS AND METHODS FOR TREATING DISEASES AND/OR CONDITIONS CAUSED BY CORONAVIRUS” (priority 2020, published 2023).

Where a name gives a salt, the structure may show the parent alone. Read-outs that look alike come from different tables or passages of the source.

Common to all, as to type: cell-based
Data set [1] relates to SARS-CoV-2. In words: In vitro antiviral assay, development of cytopathic effects (CPE), Example 1. The conditions noted are these: for minimal effective concentration: ten-fold dilutions from 25 µM, read-out: Initial titre (Minimum concentration of drug inhibiting development of CPE). (Protection from cytopathic effect is a common read-out in antiviral testing.)
Data set [2] relates to VeroE6 cells. Kind of data set: Evaluation of toxicity without virus (CPE and MTT assay), Example 1. Particulars: for Minimum Cytotoxicity: absence of virus, 72 h. Here is the method:
Serially diluted compounds (⅒ dilution) were added in each well in the absence of virus and incubated for 72 hours, and at end point the CPE was recorded as above. In parallel, a duplicate plate was set up for an MTT assay (Abcam Ab 211091) carried out following the manufacturer’s recommendations. Briefly, the culture medium was discarded and 50 µl of fresh medium and MTT reagent was added to each well, including a background (no cell) control. The plates were returned to the 37° C. incubator for 3 hours before the MTT/media solution was discarded and 150 µl of MTT solvent was added to each well. The plates were incubated for a further 15 minutes in foil on a hula mixer and the absorbance recorded at 590 nm. The percentage of cytotoxicity was calculated as follows: (DMSO control - sample)/DMSO control, after replicate values were averaged and corrected for the background control (no cell control).
(Tetrazolium dyes change colour on reduction, which living cells bring about.)

Data set [3] deals with SARS-CoV-2. In words: microbe, parasite or virus in culture.
Where [4] appears, read: Severe acute respiratory syndrome coronavirus 2, Vero C1008, 20 PFU/well SARS-CoV-2, VeroE6 cells, 72 h.
[5] abbreviates: Severe acute respiratory syndrome coronavirus 2, Vero C1008, 72 h, read-out: IC50 measured when each drug used individually.
The mark [6] stands for this setting: Severe acute respiratory syndrome coronavirus 2, Vero C1008, read-out: IC50 (drug used alone).
Setting [7] is: Severe acute respiratory syndrome coronavirus 2, Vero C1008, 72 h, 20 PFU/well SARS-CoV-2, VeroE6 cells, 72 h, narrower dilution steps in quadruplicate, read-out: Repeat TCID50 (TCID50 measurement for drugs showing greatest initial efficacy on titration).
[8] abbreviates: Severe acute respiratory syndrome coronavirus 2, Vero C1008, Table 3A, predetermined IC50 of individual drug, Vero-E6, 20 pfu/well, read-out: IC50 (drug used alone).
Where [9] appears, read: Severe acute respiratory syndrome coronavirus 2, Vero C1008, Vero-E6, 20 pfu/well, 72 h, read-out: IC50 measured when each drug used individually.

Take `Cc1onc(-c2ccccc2)c1C(=O)N1CCN(c2ccc([N+](=O)[O-])cc2Cl)CC1` [Nucleozin]: in data set [1] (setting [4]), the minimal effective concentration is above 25 µM. The “Minimum Cytotoxicity” value in data set [2] was above 25 µM.
Regarding `Cc1c(O)cccc1C(=O)N[C@@H](CSc1ccccc1)[C@H](O)CN1C[C@H]2CCCC[C@H]2C[C@H]1C(=O)NC(C)(C)C` [Nelfinavir mesylate], the IC50 in data set [1] (Severe acute respiratory syndrome coronavirus 2, Vero C1008, 72 h, read-out: Repeat TCID50 (TCID50 measurement for drugs showing greatest initial efficacy on titration), 20 PFU/well SARS-CoV-2, VeroE6 cells, 72 h, narrower dilution steps in quadruplicate) was 2900 nM; in data set [1] (read-out: Repeat TCID50 (TCID50 measurement for drugs showing greatest initial efficacy on titration), 20 PFU/well SARS-CoV-2, VeroE6 cells, 72 h, narrower dilution steps in quadruplicate), 2000 nM; in data set [3] (setting [5]), 390 nM; in data set [3] (setting [6]), 390 nM. In addition, the “Minimum Cytotoxicity” value in data set [2] turned out to be 25 µM. The entries for the “cytotoxicity in the MTT assay” value in data set [2] (at 2.5 µM) and in data set [2] (at 25 µM) were “none” and “showed cytotoxicity”, respectively.
For `Nc1nc(F)nc2c1ncn2[C@@H]1O[C@H](COP(=O)(O)O)[C@@H](O)[C@@H]1O` [Fludarabine phosphate], the “Minimum Cytotoxicity” value in data set [2] is 25 µM. The “cytotoxicity in the MTT assay” value in data set [2] (at 2.5 µM) was “none”; in data set [2] (at 25 µM) it was “showed cytotoxicity”.
With `C[C@H]1[C@H](NC(=O)/C(=N\OC(C)(C)C(=O)O)c2csc(N)n2)C(=O)N1S(=O)(=O)O` [Aztreonam], the minimal effective concentration in data set [1] (setting [4]) was above 25 µM. The “Minimum Cytotoxicity” value in data set [2] is above 25 µM.
For the molecule `Cn1nnc(-c2ccc(-c3ccc(N4C[C@H](COP(=O)(O)O)OC4=O)cc3F)cn2)n1` [Tedizolid phosphate], the minimal effective concentration in data set [1] (setting [4]) was above 25 µM. The “Minimum Cytotoxicity” value in data set [2] is given as above 25 µM.
On to `CC(C)c1nc(CN(C)C(=O)N[C@@H](CCN2CCOCC2)C(=O)N[C@H](CC[C@H](Cc2ccccc2)NC(=O)OCc2cncs2)Cc2ccccc2)cs1` [Cobicistat], for which the minimal effective concentration in data set [1] (setting [4]) was above 25 µM. Besides, the “Minimum Cytotoxicity” value in data set [2] is above 25 µM.
On to `CCCNS(=O)(=O)Nc1ncnc(OCCOc2ncc(Br)cn2)c1-c1ccc(Br)cc1` [Macitentan], for which the minimal effective concentration in data set [1] (setting [4]) is above 25 µM. In addition, the “Minimum Cytotoxicity” value in data set [2] is recorded as above 25 µM.
As for `CCCc1nc(C)c2c(=O)[nH]c(-c3cc(S(=O)(=O)N4CCN(CC)CC4)ccc3OCC)nn12` [Vardenafil hydrochloride trihydrate, 2-[2-ethoxy-5-(4-ethylpiperazin-1-yl)sulfonylphenyl]-5-methyl-7-propyl-3H-imidazo[5,1-f][1,2,4]triazin-4-one], the IC50 in data set [1] (setting [7]) was above 25000 nM; in data set [3] (setting [8]) it was 6250 nM; in data set [3] (setting [9]), 6250 nM. For the same molecule, the minimal effective concentration in data set [1] (setting [4]) was found to be 25 µM. Further, in data set [2], the “Minimum Cytotoxicity” value was above 25 µM.
In the case of `COC(=O)N[C@H](C(=O)N[C@@H](Cc1ccccc1)[C@@H](O)CN(Cc1ccc(-c2ccccn2)cc1)NC(=O)[C@@H](NC(=O)OC)C(C)(C)C)C(C)(C)C` [Atazanavir], the minimal effective concentration in data set [1] (setting [4]) was above 25 µM. Moreover, the “Minimum Cytotoxicity” value in data set [2] is above 25 µM.
Regarding `Nc1nc(=O)c2c([nH]1)NCC(CNc1ccc(C(=O)N[C@@H](CCC(=O)[O-])C(=O)[O-])cc1)N2C=O.[Ca+2]` (some centres unmarked) [Folinic acid calcium salt hydrate], in data set [1] (20 PFU/well SARS-CoV-2, VeroE6 cells, 72 h), the minimal effective concentration is above 25 µM. Moreover, the “Minimum Cytotoxicity” value in data set [2] is above 25 µM.
For the molecule `CCN(CCO)CCCC(C)Nc1ccnc2cc(Cl)ccc12` (centres unmarked) [Hydroxychloroquine], the IC50 amounted to 2900 nM in data set [1] (20 PFU/well SARS-CoV-2, VeroE6 cells, 72 h, narrower dilution steps in quadruplicate, read-out: Repeat TCID50 (TCID50 measurement for drugs showing greatest initial efficacy on titration)); 2000 nM in data set [1] (setting [7]); 1580 nM in data set [3] (setting [8]); 1580 nM in data set [3] (setting [9]). For the same molecule, the minimal effective concentration in data set [1] (setting [4]) was 25 µM. The “Minimum Cytotoxicity” value in data set [2] came out at 25 µM. Also, the entries for the “cytotoxicity in the MTT assay” value in data set [2] (at 2.5 µM) and in data set [2] (at 25 µM) were “none” and “showed cytotoxicity”, respectively.
Consider `CC(C)(C)NC(=O)[C@@H]1CN(Cc2cccnc2)CCN1C[C@@H](O)C[C@@H](Cc1ccccc1)C(=O)N[C@H]1c2ccccc2C[C@H]1O` [Indinavir sulfate], for which the “Minimum Cytotoxicity” value in data set [2] was above 25 µM.
Turning to `CS(=O)(=O)c1cccc(C[C@H](NC(=O)c2c(Cl)cc3c(c2Cl)CCN(C(=O)c2ccc4ccoc4c2)C3)C(=O)O)c1` [Lifitegrast], the minimal effective concentration in data set [1] (setting [4]) was above 25 µM. Further, in data set [2], the “Minimum Cytotoxicity” value is listed as above 25 µM.
In the same order, the values of `Cc1cc(/C=C/C#N)cc(C)c1Nc1ccnc(Nc2ccc(C#N)cc2)n1` [Rilpivirine hydrochloride] are above 25 µM and above 25 µM.
For the molecule `CCC(CC)COC(=O)[C@H](C)N[P@](=O)(OC[C@H]1O[C@@](C#N)(c2ccc3c(N)ncnn23)[C@H](O)[C@@H]1O)Oc1ccccc1` [Remdesivir], the IC50 in data set [3] (setting [5]) and in data set [3] (setting [6]) was 1560 nM throughout.
